Reference: US11597724B2, “Herbicidally active 3-phenylisoxazoline-5-carboxamides of tetrahydro and dihydrofuran carboxylic acids and esters” (Bayer Aktiengesellschaft, priority 2017, dated 2023)

Columns and labels:
Type in all cases: in vivo
Avena fatua = assay: Post-emergence herbicidal activity against AVEFA; settings: Avena fatua, 504 h, dosage 320 g/ha, rated about 3 weeks after treatment
Description: (§1) AMARE: Amaranthus retroflexus AVEFA: Avena fatua 2. Post-Emergence Herbicidal Action and Crop Plant Compatibility Seeds of monocotyledonous and dicotyledonous weeds and crop plants are placed in sandy loam in plastic or wood-fiber pots, covered with soil and cultivated in a greenhouse under controlled growth conditions. 2 to 3 weeks after sowing, the test plants are treated at the one-leaf stage. The compounds of the invention, formulated in the form of wettable powders (WP) or as emulsion concentrates (EC), are then sprayed onto the green parts of the plants as aqueous suspension or emulsion with addition of 0.5% additive at a water application rate of 600 l/ha (converted). After the test plants had been kept in the greenhouse under optimum growth conditions for about 3 weeks, the activity of the preparations is rated visually in comparison to untreated controls. For example, 100% activity=the plants have died, 0% activity=like control plants.

Pharbitis purpurea = assay: Post-emergence herbicidal activity against PHBPU; settings: Ipomoea purpurea, 504 h, dosage 320 g/ha, rated about 3 weeks after treatment
Description: as §1, with “LOLRI: Lolium rigidum PHBPU: Pharbitis purpurea” for “AMARE: Amaranthus retroflexus AVEFA: Avena fatua”

Amaranthus retroflexus = assay: Pre-emergence herbicidal activity against AMARE; settings: Amaranthus retroflexus, 504 h, dosage 80 g/ha
Source text: (§2) 1. Pre-Emergence Herbicidal Action and Crop Plant Compatibility Seeds of monocotyledonous and dicotyledonous weed plants and crop plants are placed in plastic or wood fiber pots and covered with soil. The compounds of the invention, formulated in the form of wettable powders (WP) or as emulsion concentrates (EC), are then applied onto the surface of the covering soil as aqueous suspension or emulsion with addition of 0.5% additive at a water application rate of 600 l/ha (converted). After the treatment, the pots are placed in a greenhouse and kept under good growth conditions for the trial plants. After about 3 weeks, the effect of the preparations is scored visually in comparison with untreated controls as percentages. For example, 100% activity=the plants have died, 0% activity=like control plants. AMARE: Amaranthus retroflexus AVEFA: Avena fatua

Hordeum murinum = assay: Post-emergence herbicidal activity against HORMU; settings: Hordeum murinum, 504 h, dosage 320 g/ha
Description: as §1, with “ECHCG: Echinochloa crus-galli HORMU: Hordeum murinum” for “AMARE: Amaranthus retroflexus AVEFA: Avena fatua”

[1] = Post-emergence treatment, summary over harmful plants; settings: 504 h, application rate of 0.32 kg of active substance or less per hectare, read-out: herbicidal action, post-emergence treatment (very good herbicidal activity)
Description: 2. Post-Emergence Herbicidal Action and Crop Plant Compatibility
as §1, with “Seeds” for “AMARE: Amaranthus retroflexus AVEFA: Avena fatua 2. Post-Emergence Herbicidal Action and Crop Plant Compatibility Seeds”
As shown by the results, compounds according to the invention such as, for example, the compounds No. I-35 and other compounds from the tables (for example I-28, I-38, I-01, I-19, I-36, I-29, I-32, I-11, I-12, I-37, I-06, I-09, I-33, I-34, I-13, I-04, I-26, I-21, I-30, I-05, I-03, I-20, I-27, I-14, I-10, I-23, I-07, I-25, I-02, I-08, I-24, I-41, I-42, I-43, I-44, I-46, I-49, I-54, I-55, I-56) have, when used for post-emergence treatment, very good herbicidal activity (80% to 100% herbicidal action) against harmful plants such as Abutilon theophrasti, Alopecurus myosuroides, Amaranthus retroflexus, Avena fatua, Echinochloa crus-galli, Hordeum murinum, Lolium rigidum, Pharbitis purpurea, Polygonum convolvulus, Setaria viridis, Stellaria media, Veronica persica and Viola tricolor at an application rate of 0.32 kg of active substance or less per hectare.

Alopecurus myosuroides = assay: Post-emergence herbicidal activity against ALOMY; settings: Alopecurus myosuroides, 504 h, dosage 320 g/ha, rated about 3 weeks after treatment
Description: as §1, with “ABUTH: Abutilon theophrasti ALOMY: Alopecurus myosuroides” for “AMARE: Amaranthus retroflexus AVEFA: Avena fatua”

Polygonum convolvulus = assay: Post-emergence herbicidal activity against POLCO; settings: Fallopia convolvulus, 504 h, dosage 320 g/ha, rated about 3 weeks after treatment
Description: as §1, with “POLCO: Polygonum convolvulus SETVI: Setaria viridis” for “AMARE: Amaranthus retroflexus AVEFA: Avena fatua”

Lolium rigidum = assay: Post-emergence herbicidal activity against LOLRI; settings: Lolium rigidum, 504 h, dosage 320 g/ha, rated about 3 weeks after treatment
Description: as §1, with “LOLRI: Lolium rigidum PHBPU: Pharbitis purpurea” for “AMARE: Amaranthus retroflexus AVEFA: Avena fatua”

Veronica persica [2] = assay: Pre-emergence herbicidal activity against VERPE; settings: Veronica persica, 504 h, dosage 80 g/ha
Source text: as §2, with “STEME: Stellaria media VERPE: Veronica persica” for “AMARE: Amaranthus retroflexus AVEFA: Avena fatua”

Setaria viridis = assay: Post-emergence herbicidal activity against SETVI; settings: Setaria viridis, 504 h, dosage 320 g/ha, rated about 3 weeks after treatment
Description: as §1, with “POLCO: Polygonum convolvulus SETVI: Setaria viridis” for “AMARE: Amaranthus retroflexus AVEFA: Avena fatua”

Viola tricolor = assay: Post-emergence herbicidal activity against VIOTR; settings: Viola tricolor, 504 h, dosage 320 g/ha, rated about 3 weeks after treatment
Description: as §1, with “VIOTR: Viola tricolor” for “AMARE: Amaranthus retroflexus AVEFA: Avena fatua”

Abutilon theophrasti [3] = assay: Pre-emergence herbicidal activity against ABUTH; settings: dosage 80 g/ha
Source text: as §2, with “ABUTH: Abutilon theophrasti ALOMY: Alopecurus myosuroides” for “AMARE: Amaranthus retroflexus AVEFA: Avena fatua”

Veronica persica [4] = assay: Post-emergence herbicidal activity against VERPE; settings: Veronica persica, 504 h, dosage 320 g/ha
Description: as §1, with “STEME: Stellaria media VERPE: Veronica persica” for “AMARE: Amaranthus retroflexus AVEFA: Avena fatua”

Echinochloa crus-galli = assay: Post-emergence herbicidal activity against ECHCG; settings: Echinochloa crus-galli, 504 h, dosage 320 g/ha, rated about 3 weeks after treatment
Description: as §1, with “ECHCG: Echinochloa crus-galli HORMU: Hordeum murinum” for “AMARE: Amaranthus retroflexus AVEFA: Avena fatua”

Abutilon theophrasti [5] = assay: Post-emergence herbicidal activity against ABUTH; settings: Abutilon theophrasti, 504 h, dosage 320 g/ha, rated about 3 weeks after treatment
Description: as §1, with “ABUTH: Abutilon theophrasti ALOMY: Alopecurus myosuroides” for “AMARE: Amaranthus retroflexus AVEFA: Avena fatua”

Stellaria media [6] = assay: Post-emergence herbicidal activity against STEME; settings: Stellaria media, 504 h, dosage 320 g/ha, rated about 3 weeks after treatment
Description: as §1, with “STEME: Stellaria media VERPE: Veronica persica” for “AMARE: Amaranthus retroflexus AVEFA: Avena fatua”

Stellaria media [7] = assay: Pre-emergence herbicidal activity against STEME; settings: Stellaria media, 504 h, dosage 80 g/ha
Source text: as §2, with “STEME: Stellaria media VERPE: Veronica persica” for “AMARE: Amaranthus retroflexus AVEFA: Avena fatua”

CCOC(=O)C1=C(NC(=O)C2(C)CC(c3cc(F)cc(F)c3)=NO2)COC1 (stereo not shown) [I-24, ethyl 4-[[3-(3,5-difluorophenyl)-5-methyl-4H-isoxazole-5-carbonyl]amino]-2,5-dihydrofuran-3-carboxylate]
pest or weed control at 320 g/ha (Avena fatua): 90% | pest or weed control at 320 g/ha (Pharbitis purpurea): 80% | pest or weed control at 80 g/ha (Amaranthus retroflexus): 80% | pest or weed control at 320 g/ha (Hordeum murinum): 90% | pest or weed control at 320 g/ha [1]: 80 to 100% | pest or weed control at 320 g/ha (Alopecurus myosuroides): 90% | pest or weed control at 320 g/ha (Polygonum convolvulus): 90% | pest or weed control at 320 g/ha (Lolium rigidum): 90% | pest or weed control at 80 g/ha (Veronica persica [2]): 100%

COC(=O)[C@H]1C[C@@H](NC(=O)C2(OC)CC(c3cc(Cl)cc(Cl)c3)=NO2)CO1 (relative stereo) [I-02, methyl cis-4-[[3-(3,5-dichlorophenyl)-5-methoxy-4H-isoxazole-5-carbonyl]amino]tetrahydrofuran-2-carboxylate]
pest or weed control at 320 g/ha (Pharbitis purpurea): 90% | pest or weed control at 320 g/ha (Setaria viridis): 80% | pest or weed control at 320 g/ha (Viola tricolor): 80% | pest or weed control at 320 g/ha [1]: 80 to 100% | pest or weed control at 320 g/ha (Alopecurus myosuroides): 80% | Pre-emergence herbicidal activity against ABUTH in % (Abutilon theophrasti [3]): 100% | pest or weed control at 320 g/ha (Polygonum convolvulus): 90% | pest or weed control at 320 g/ha (Veronica persica [4]): 80% | pest or weed control at 320 g/ha (Echinochloa crus-galli): 90%

COC(=O)C1=C(NC(=O)C2(C)CC(c3cc(F)cc(F)c3)=NO2)COC1 (stereo not shown) [I-25, methyl 4-[[3-(3,5-difluorophenyl)-5-methyl-4H-isoxazole-5-carbonyl]amino]-2,5-dihydrofuran-3-carboxylate]
pest or weed control at 320 g/ha (Avena fatua): 100% | pest or weed control at 320 g/ha (Pharbitis purpurea): 80% | pest or weed control at 320 g/ha (Abutilon theophrasti [5]): 80% | pest or weed control at 320 g/ha (Stellaria media [6]): 90% | pest or weed control at 80 g/ha (Stellaria media [7]): 100% | pest or weed control at 320 g/ha [1]: 80 to 100% | pest or weed control at 320 g/ha (Alopecurus myosuroides): 100% | pest or weed control at 320 g/ha (Polygonum convolvulus): 90% | pest or weed control at 80 g/ha (Veronica persica [2]): 100% | pest or weed control at 320 g/ha (Veronica persica [4]): 80%
